# Measurements from US12295396B2, “Antagonists of T2R54 and compositions and uses thereof” (Firmenich Incorporated, priority 2018, dated 2025).
# Where two headings read alike, the source gives them in different places.
# Target: T1, hT2R54 (Homo sapiens, UniProt P59534)
# T1 construct: expressed in transfected cells; it overexpresses a promiscuous G protein
# T1 sequence (P59534 1-338): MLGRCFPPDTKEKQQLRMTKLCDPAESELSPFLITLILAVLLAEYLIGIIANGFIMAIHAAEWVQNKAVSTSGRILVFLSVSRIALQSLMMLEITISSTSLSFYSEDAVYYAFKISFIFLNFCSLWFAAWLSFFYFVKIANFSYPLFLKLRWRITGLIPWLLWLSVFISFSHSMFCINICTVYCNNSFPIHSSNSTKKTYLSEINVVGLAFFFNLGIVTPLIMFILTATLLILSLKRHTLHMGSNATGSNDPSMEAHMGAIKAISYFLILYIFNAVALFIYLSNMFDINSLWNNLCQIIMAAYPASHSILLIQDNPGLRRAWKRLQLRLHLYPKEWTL
# Test: Cell-based assay for measuring hT2R54 inhibition (FLIPR calcium, Fluo4AM, acetaminophen as bitter agonist)
# Settings: read-out: hT2R54 IC50
# In short: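 Cells stably co-expressing hT2R54 and a promiscuous G protein were loaded with Fluo4AM and given acetaminophen dose series, alone or with fixed concentrations of test compound. On FLIPR, baseline was recorded for 10 s and fluorescence for 3 min after addition. IC50 is the concentration halving the acetaminophen-alone response.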
# [1] = Table 2, cells stably expressing hT2R54 and a promiscuous G protein
SMILES,IC50 (Table 8),other results
CC(=O)c1cc2c(cc1NC(=O)CC1CCCN(C(=O)C3CCCCO3)C1)OCO2 (centres unmarked) [compound 211],18 nM,–
CC(=O)c1cc2c(cc1NC(=O)CC1CCCN(C(=O)CN(C)C)C1)OCO2 (centres unmarked) [compound 212],> 1000 nM,–
CCOC(=O)N1CCCC(CC(=O)Nc2cc3c(cc2C(C)=O)OCO3)C1 (centres unmarked) [compound 213],50 nM,–
CCCOC(=O)N1CCCC(CC(=O)Nc2cc3c(cc2C(C)=O)OCO3)C1 (centres unmarked) [compound 214],320 nM,–
CC(=O)c1cc2c(cc1NC(=O)CC1CCCN(C(=O)OC(C)C)C1)OCO2 (centres unmarked) [compound 215],160 nM,–
CC(=O)c1cc2c(cc1NC(=O)CC1CCCN(C(=O)c3ccccc3)C1)OCO2 (centres unmarked) [compound 216],80 nM,–
CC(=O)c1cc2c(cc1NC(=O)CC1CCCN(C(=O)c3ccccc3O)C1)OCO2 (centres unmarked) [compound 217],480 nM,–
CC(=O)c1cc2c(cc1NC(=O)CC1CCCN(C(=O)c3cccc(O)c3)C1)OCO2 (centres unmarked) [compound 218],> 1000 nM,–
CC(=O)c1cc2c(cc1NC(=O)CC1CCCN(C(=O)c3ccc(O)cc3)C1)OCO2 (centres unmarked) [compound 219],1460 nM,–
CC(=O)c1cc2c(cc1NC(=O)C[C@@H]1CCCN(C(=O)c3ccco3)C1)OCO2 [compound 220],~10 nM,–
CC(=O)c1cc2c(cc1NC(=O)CC1CCCN(C(=O)c3cnn(C)c3)C1)OCO2 (centres unmarked) [compound 221],60 nM,–
CC(=O)c1cc2c(cc1NC(=O)CC1CCCN(S(C)(=O)=O)C1)OCO2 (centres unmarked) [compound 222],60 nM,–
CCS(=O)(=O)N1CCCC(CC(=O)Nc2cc3c(cc2C(C)=O)OCO3)C1 (centres unmarked) [compound 223],40 nM,–
CCCS(=O)(=O)N1CCCC(CC(=O)Nc2cc3c(cc2C(C)=O)OCO3)C1 (centres unmarked) [compound 224],40 nM,–
CCCCS(=O)(=O)N1CCCC(CC(=O)Nc2cc3c(cc2C(C)=O)OCO3)C1 (centres unmarked) [compound 225],70 nM,–
CC(=O)c1cc2c(cc1NC(=O)CC1CCCN(S(=O)(=O)CC(C)C)C1)OCO2 (centres unmarked) [compound 226],160 nM,–
CC(=O)c1cc2c(cc1NC(=O)CC1CCCN(S(=O)(=O)c3ccco3)C1)OCO2 (centres unmarked) [compound 227],130 nM,–
COCc1ccc(C(=O)N2CCCC(CC(=O)Nc3cc4c(cc3C(C)=O)OCO4)C2)o1 (centres unmarked) [compound 228],20 nM,–
CC(=O)c1cc2c(cc1NC(=O)CC1CN(C(=O)CC(C)C)CCO1)OCO2 (centres unmarked) [compound 229],220 nM,–
CCOC(=O)N1CCOC(CC(=O)Nc2cc3c(cc2C(C)=O)OCO3)C1 (centres unmarked) [compound 230],160 nM,–
CC(=O)c1cc2c(cc1NC(=O)CC1CN(C(=O)c3ccco3)CCO1)OCO2 (centres unmarked) [compound 231],240 nM,–
CC(=O)c1cc2c(cc1NC(=O)CC1CCN(C(C)=O)CC1)OCO2 [compound 232],> 1000 nM,–
CCC(=O)N1CCC(CC(=O)Nc2cc3c(cc2C(C)=O)OCO3)CC1 [compound 233],86 nM,–
CCCC(=O)N1CCC(CC(=O)Nc2cc3c(cc2C(C)=O)OCO3)CC1 [compound 234],> 1000 nM,–
CCCCC(=O)N1CCC(CC(=O)Nc2cc3c(cc2C(C)=O)OCO3)CC1 [compound 235],77 nM,–
CC(=O)c1cc2c(cc1NC(=O)CC1CCN(C(=O)C(C)C)CC1)OCO2 [compound 236],> 1000 nM,–

SMILES,IC50 (Table 8),other results
CC(=O)c1cc2c(cc1NC(=O)CC1CCN(C(=O)C(C)(C)C)CC1)OCO2 [compound 237],190 nM,–
CC(=O)c1cc2c(cc1NC(=O)CC1CCN(C(=O)C3CC3)CC1)OCO2 [compound 238],470 nM,–
CC(=O)c1cc2c(cc1NC(=O)CC1CCN(C(=O)C3CCCCC3)CC1)OCO2 [compound 239],> 1000 nM,–
CCOC(=O)N1CCC(CC(=O)Nc2cc3c(cc2C(C)=O)OCO3)CC1 [compound 240],34 nM,–
CCCOC(=O)N1CCC(CC(=O)Nc2cc3c(cc2C(C)=O)OCO3)CC1 [compound 241],72 nM,–
CC(=O)c1cc2c(cc1NC(=O)CC1CCN(C(=O)C3CCCO3)CC1)OCO2 (centres unmarked) [compound 242],68 nM,–
CC(=O)c1cc2c(cc1NC(=O)CC1CCN(C(=O)C3CCCCO3)CC1)OCO2 (centres unmarked) [compound 243],96 nM,–
CC(=O)c1cc2c(cc1NC(=O)CC1CCN(C(=O)c3cccnc3)CC1)OCO2 [compound 244],51 nM,–
COCc1cccc(C(=O)N2CCC(CC(=O)Nc3cc4c(cc3C(C)=O)OCO4)CC2)c1 [compound 245],44 nM,–
CC(=O)c1cc2c(cc1NC(=O)CC1CCN(C(=O)c3ccon3)CC1)OCO2 [compound 246],2310 nM,–
CC(=O)c1cc2c(cc1NC(=O)CC1CCN(C(=O)Cc3ccccc3)CC1)OCO2 [compound 247],490 nM,–
CC(=O)c1cc2c(cc1NC(=O)CC1CCN(C(=O)Cc3ccccc3F)CC1)OCO2 [compound 248],420 nM,–
CC(=O)c1cc2c(cc1NC(=O)CC1CCN(C(=O)Cc3cccc(F)c3)CC1)OCO2 [compound 249],2540 nM,–
CC(=O)c1cc2c(cc1NC(=O)CC1CCN(C(=O)Cc3cccnc3)CC1)OCO2 [compound 250],760 nM,–
CC(=O)c1cc2c(cc1NC(=O)CC1CCN(C(=O)Cc3ccncc3)CC1)OCO2 [compound 251],580 nM,–
CC(=O)c1cc2c(cc1NC(=O)CC1CCN(C(=O)Cc3ccccc3O)CC1)OCO2 [compound 252],1090 nM,–
CC(=O)c1cc2c(cc1NC(=O)CC1CCN(C(=O)Cc3cccc(O)c3)CC1)OCO2 [compound 253],750 nM,–
CC(=O)c1cc2c(cc1NC(=O)CC1CCN(C(=O)Cc3ccc(O)cc3)CC1)OCO2 [compound 254],320 nM,–
COc1ccccc1CC(=O)N1CCC(CC(=O)Nc2cc3c(cc2C(C)=O)OCO3)CC1 [compound 255],1300 nM,–
COc1cccc(CC(=O)N2CCC(CC(=O)Nc3cc4c(cc3C(C)=O)OCO4)CC2)c1 [compound 256],380 nM,–
COc1ccc(CC(=O)N2CCC(CC(=O)Nc3cc4c(cc3C(C)=O)OCO4)CC2)cc1 [compound 257],1570 nM,–
CC(=O)c1cc2c(cc1NC(=O)CC1CCN(C(C)=O)C1)OCO2 (centres unmarked) [compound 258],928 nM,–
CCC(=O)N1CCC(CC(=O)Nc2cc3c(cc2C(C)=O)OCO3)C1 (centres unmarked) [compound 259],2600 nM,–
CCCC(=O)N1CCC(CC(=O)Nc2cc3c(cc2C(C)=O)OCO3)C1 (centres unmarked) [compound 260],844 nM,–
CC(=O)c1cc2c(cc1NC(=O)CC1CCN(C(=O)C(C)C)C1)OCO2 (centres unmarked) [compound 261],958 nM,–
CC(=O)c1cc2c(cc1NC(=O)CC1CCN(C(=O)C(C)(C)C)C1)OCO2 (centres unmarked) [compound 262],290 nM,–

SMILES,IC50 (Table 8),other results
CC(=O)c1cc2c(cc1NC(=O)CC1CCN(C(=O)CC(C)C)C1)OCO2 (centres unmarked) [compound 263],374 nM,–
CC(=O)c1cc2c(cc1NC(=O)CC1CCN(C(=O)CC(C)(C)C)C1)OCO2 (centres unmarked) [compound 264],381 nM,–
CC(=O)c1cc2c(cc1NC(=O)CC1CCN(C(=O)C3CC3)C1)OCO2 (centres unmarked) [compound 265],682 nM,–
CC(=O)c1cc2c(cc1NC(=O)CC1CCN(C(=O)C3CCCC3)C1)OCO2 (centres unmarked) [compound 266],506 nM,–
CC(=O)c1cc2c(cc1NC(=O)CC1CCN(C(=O)C3CCCCC3)C1)OCO2 (centres unmarked) [compound 267],2250 nM,–
CCOC(=O)N1CCC(CC(=O)Nc2cc3c(cc2C(C)=O)OCO3)C1 (centres unmarked) [compound 268],117 nM,–
CCCOC(=O)N1CCC(CC(=O)Nc2cc3c(cc2C(C)=O)OCO3)C1 (centres unmarked) [compound 269],103 nM,–
"CC(=O)c1cc2c(cc1NC(=O)CC1CCOCC1)OCO2 [compound 270, N-(6-Acetylbenzo[d][1,3]dioxol-5-yl)-2-(tetrahydro-2H-pyran-4-yl)acetamide]",–,IC50 (Table 9): 561 nM
CC(=O)c1cc2c(cc1NC(=O)CC1CCCCO1)OCO2 (centres unmarked) [compound 271],–,IC50 (Table 9): 152 nM
CC(=O)c1cc2c(cc1NC(=O)CC1CCOC1)OCO2 (centres unmarked) [compound 272],–,IC50 (Table 9): 1390 nM
CC(=O)c1cc2c(cc1NC(=O)Cc1cccnc1)OCO2 [compound 273],–,IC50 (Table 9): 454 nM
CC(=O)c1cc2c(cc1NC(=O)Cc1ccc(O)cc1)OCO2 [compound 274],–,IC50 (Table 9): 554 nM
CC(=O)c1cc2c(cc1NC(=O)Cc1ccsc1)OCO2 [compound 275],–,IC50 (Table 9): 704 nM
COc1ccccc1CC(=O)Nc1cc2c(cc1C(C)=O)OCO2 [compound 276],–,IC50 (Table 9): 804 nM
CC(=O)c1cc2c(cc1NC(=O)Cc1ccccc1C)OCO2 [compound 277],–,IC50 (Table 9): 740 nM
CC(=O)c1cc2c(cc1NC(=O)CCc1ccccc1)OCO2 [compound 278],–,IC50 (Table 9): 1220 nM
COc1ccc(OC)c(CC(=O)Nc2cc3c(cc2C(C)=O)OCO3)c1 [compound 279],–,IC50 (Table 9): 1470 nM
CC(=O)c1cc2c(cc1NC(=O)Cc1c(C)nn(C)c1C)OCO2 [compound 280],–,IC50 (Table 9): 1720 nM
COc1cccc(CC(=O)Nc2cc3c(cc2C(C)=O)OCO3)c1 [compound 281],–,IC50 (Table 9): 1810 nM
COCc1ccc(C(=O)N2CCN(CC(=O)Nc3cc4c(cc3C(C)=O)OCO4)CC2)cc1 [compound 282],–,IC50 [1]: 38 nM
COCc1cccc(C(=O)N2CCN(CC(=O)Nc3cc4c(cc3C(C)=O)OCO4)CC2)n1 [compound 283],–,IC50 [1]: 125 nM
CC(=O)c1cc2c(cc1NC(=O)CN1CCN(C(=O)c3csnn3)CC1)OCO2 [compound 284],–,IC50 [1]: 30 nM
CC(=O)c1cc2c(cc1NC(=O)CN1CCN(C(=O)c3cscn3)CC1)OCO2 [compound 285],–,IC50 [1]: 34 nM
CC(=O)c1cc2c(cc1NC(=O)CN1CCN(C(=O)c3cocn3)CC1)OCO2 [compound 286],–,IC50 [1]: 108 nM
CC(=O)c1cc2c(cc1NC(=O)CN1CCN(C(=O)c3ccc(CO)o3)CC1)OCO2 [compound 287],–,IC50 [1]: 230 nM
